Literature values in patent US11433096B2, “Ophthalmic formulation and methods of use” (priority 2020, dated 2022).

What was measured:
opacities = settings: in vivo
[1] = system: diabetes-induced cataract; settings: diabetic rats

Row | Compound | opacities progression and opacity score (opacities) | cross-linked glycation, expression of the receptor of glycated products and oxidative stress indicators in the eye lens ([1]; supplemental zinc) | progression and maturation of diabetes-induced cataract ([1]; supplemental zinc) | reduced content of total and imbalanced proportion of soluble proteins in the lens ([1]; supplemental zinc) | concentration of heat shock protein in the eye lens, specifically α-crystallin ([1]; zinc supplementation) | elevated activity and expression of polyol pathway enzymes and molecules in the lens ([1]; zinc supplementation)
1 | O=S(=O)([O-])[O-].[Zn+2] [Zinc Sulfate] | retard opacities progression and lowering the opacity score |  |  |  |  | 
2 | [Zn] [zinc] |  | alleviated | alleviated | effective in preventing | induced | counteracted
